What was measured:
Assay in all cases: relative viability (nuclei count vs DMSO), 5 days (fraction); higher = more cells survive
GSK126 + Tozasertib = compound: CC[C@H](C)N1C=C(C2=C(C=C(C=C21)C3=CN=C(C=C3)N4CCNCC4)C(=O)NCC5=C(C=C(NC5=O)C)C)C [GSK126] + Cc1cc(Nc2cc(N3CCN(C)CC3)nc(Sc3ccc(NC(=O)C4CC4)cc3)n2)n[nH]1 [Tozasertib] (partner 0.1 µM)
Method in brief: (§1)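 After 5 days of treatment, lung cancer cells in 1536-well plates were fixed and stained in a single step (final 0.05% Triton X-100, 1% formaldehyde, 1 ug/ml Hoechst) and their nuclei counted on 4× images. Treatment had been applied by pin tool the day after seeding as one drug alone or as a fixed anchor-drug dose with five library-drug doses (not always all listed) in √10 steps. Relative viability is the nuclei count of treated wells divided by that of vehicle wells, and values are medians of duplicate plates.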

Carboplatin + Foretinib = compound: C1CC(C1)(C(=O)O)C(=O)O.[NH2-].[NH2-].[Pt+2] [Carboplatin] + COc1cc2c(Oc3ccc(NC(=O)C4(C(=O)Nc5ccc(F)cc5)CC4)cc3F)ccnc2cc1OCCCN1CCOCC1 [Foretinib] (partner 0.25 µM)
Method in brief: as §1

Carboplatin + Lapatinib = compound: C1CC(C1)(C(=O)O)C(=O)O.[NH2-].[NH2-].[Pt+2] [Carboplatin] + CS(=O)(=O)CCNCc1ccc(-c2ccc3ncnc(Nc4ccc(OCc5cccc(F)c5)c(Cl)c4)c3c2)o1 [Lapatinib] (partner 2 µM)
Method in brief: as §1

GSK126 + Decitabine = compound: CC[C@H](C)N1C=C(C2=C(C=C(C=C21)C3=CN=C(C=C3)N4CCNCC4)C(=O)NCC5=C(C=C(NC5=O)C)C)C [GSK126] + Nc1ncn([C@H]2C[C@H](O)[C@@H](CO)O2)c(=O)n1 [Decitabine] (partner 2 µM)
Method in brief: as §1

Cell Line | relative viability (GSK126 + Tozasertib; first compound 0.08 µM) | relative viability (GSK126 + Tozasertib; first compound 0.253 µM) | relative viability (GSK126 + Tozasertib; first compound 0.8 µM) | relative viability (GSK126 + Tozasertib; first compound 2.53 µM) | relative viability (GSK126 + Tozasertib; first compound 8 µM) | relative viability (Carboplatin + Foretinib; first compound 0.08 µM) | relative viability (Carboplatin + Foretinib; first compound 0.253 µM) | relative viability (Carboplatin + Foretinib; first compound 0.8 µM) | relative viability (Carboplatin + Foretinib; first compound 2.53 µM) | relative viability (Carboplatin + Foretinib; first compound 8 µM) | relative viability (Carboplatin + Lapatinib; first compound 0.08 µM) | relative viability (Carboplatin + Lapatinib; first compound 0.253 µM) | relative viability (Carboplatin + Lapatinib; first compound 0.8 µM) | relative viability (Carboplatin + Lapatinib; first compound 2.53 µM) | relative viability (Carboplatin + Lapatinib; first compound 8 µM) | relative viability (GSK126 + Decitabine; first compound 0.08 µM) | relative viability (GSK126 + Decitabine; first compound 0.253 µM) | relative viability (GSK126 + Decitabine; first compound 0.8 µM) | relative viability (GSK126 + Decitabine; first compound 2.53 µM) | relative viability (GSK126 + Decitabine; first compound 8 µM)
201T | 0.893 | 1.05 | 0.944 | 0.944 | 0.836 | 1.28 | 1.05 | 0.917 | 0.867 | 0.618 | 1.06 | 1.08 | 1.11 | 1.08 | 0.99 | 0.865 | 0.899 | 0.916 | 0.86 | 0.946
A549 | – | – | – | – | – | 1.03 | 0.991 | 0.888 | 0.768 | 0.741 | 1.12 | 0.938 | 0.911 | 0.928 | 0.437 | 0.224 | 0.299 | 0.26 | 0.253 | 0.272
A-427 | 0.227 | 0.245 | 0.189 | 0.226 | 0.162 | 1.16 | 1.15 | 1.03 | 0.992 | 1.16 | 1.1 | 1.05 | 1.04 | 1.04 | 0.985 | 0.586 | 0.63 | 0.565 | 0.559 | 0.568
ABC-1 | 0.159 | 0.135 | 0.217 | 0.167 | 0.17 | 1.28 | 1.09 | 1.1 | 0.769 | 0.398 | 1.12 | 1.55 | 0.848 | 0.902 | 1.17 | 1.14 | 0.907 | 0.885 | 1 | 1
BEN | 0.516 | 0.388 | 0.669 | – | 0.462 | 0.778 | 0.654 | 0.69 | 0.658 | 0.589 | 0.797 | 0.87 | 0.749 | 0.654 | 0.59 | 0.834 | 0.658 | 0.78 | 0.901 | 0.744
CAL-12T | 0.324 | 0.358 | 0.301 | 0.189 | 0.184 | 1.1 | 1.06 | 1.2 | 1.02 | 1.07 | 0.754 | 0.624 | 0.749 | 0.755 | 0.639 | – | – | – | – | –
COR-L23 | 0.206 | 0.228 | 0.208 | 0.168 | 0.175 | 0.948 | 0.94 | 0.91 | 0.729 | 0.512 | 0.946 | 0.919 | 0.67 | 0.728 | 0.419 | 0.467 | 0.373 | 0.389 | 0.448 | 0.433
COR-L 105 | 0.355 | 0.31 | 0.402 | 0.312 | 0.264 | 0.986 | 0.993 | 0.902 | 0.897 | 0.578 | 0.354 | 0.349 | 0.381 | 0.332 | 0.382 | 0.591 | 0.629 | 0.653 | 0.575 | 0.667
Calu-6 | – | – | – | – | – | 0.911 | 0.919 | 0.793 | 0.789 | 0.415 | 1.12 | 1.06 | 1.03 | 0.87 | 0.456 | – | – | – | – | –
ChaGo-K-1 | 0.237 | 0.238 | 0.216 | 0.233 | 0.201 | 0.872 | 0.993 | 0.835 | 0.745 | 0.579 | – | – | – | – | – | 0.526 | 0.506 | 0.525 | 0.537 | 0.544
EBC-1 | – | – | – | – | – | 0.0979 | 0.108 | 0.108 | 0.0821 | 0.101 | 0.201 | 0.234 | 0.201 | 0.208 | 0.204 | – | – | – | – | –
EKVX | 0.411 | 0.443 | 0.4 | 0.355 | 0.326 | 0.903 | 0.893 | – | 0.749 | 0.747 | 0.21 | 0.2 | 0.217 | 0.191 | 0.218 | 0.343 | 0.383 | 0.39 | 0.351 | 0.301
EMC-BAC-2 | 0.306 | 0.266 | 0.154 | 0.238 | 0.249 | 1.07 | 1.06 | 1.02 | 1.03 | 0.898 | 0.883 | 0.886 | 0.924 | 0.837 | 0.88 | 1.05 | 0.974 | 0.878 | 0.893 | 0.936
EPLC-272H | 0.316 | 0.306 | 0.211 | 0.306 | 0.189 | 0.785 | 0.852 | 0.727 | 0.611 | 0.602 | 1.01 | 1.14 | 0.961 | 0.981 | 0.901 | 0.441 | 0.349 | 0.39 | 0.358 | 0.361
H3255 | 0.704 | 0.65 | 0.74 | 0.614 | 0.466 | 0.905 | 0.872 | 0.875 | 0.898 | 0.836 | 0.276 | 0.248 | 0.269 | 0.257 | 0.236 | 0.479 | 0.628 | 0.665 | 0.502 | 0.684
HARA | 0.131 | 0.0947 | 0.0975 | 0.0847 | 0.106 | 1.05 | 1.03 | 0.83 | 0.798 | 0.744 | 0.816 | 0.842 | 0.841 | 0.654 | 0.695 | 0.628 | 0.629 | 0.403 | 0.519 | 0.402
HCC-15 | 0.374 | 0.329 | 0.43 | 0.204 | 0.158 | 1.05 | 1.04 | 0.969 | 0.845 | 0.715 | 0.919 | 0.854 | 0.875 | 0.814 | 0.66 | 0.739 | 0.656 | 0.685 | 0.59 | 0.609
HCC-44 | 0.942 | 0.877 | 0.88 | 0.983 | 0.897 | – | – | – | – | – | 1.03 | 1.01 | 0.984 | 0.965 | 0.968 | 0.918 | 1.06 | 1.06 | 0.89 | 0.971

Reference: the supplement of paper PMC10307832
